Experimental data reported in PubChem BioAssay AID1963965 (Molecular Pharmacology Branch, DTP, NCI, 2024).

Tested on: 996289-038-R-J1-PDC spheroid viability
Assay: Anticancer human tumor 996289-038-R-J1-PDC patient-derived colon adenocarcinoma cell line growth inhibition [PI3K]
Details: spheroids with HUVEC and MSC; for IC50: curve of first compound; for viability, T/C: stronger effect = lower value
Source text: Combinatorial screen of targeted agents with the PI3K inhibitors inavolisib, alpelisib, duvelisib, and copanlisib in multi-cell type tumor spheroids
A high-throughput screen of multi-cell type tumor spheroids was designed to identify active combinations of targeted small molecules and PI3K pathway inhibitors. Complex spheroids include a stromal component modeled by human endothelial cells (HUVEC) and fibroblasts modeled by human mesenchymal stem cells (MSCs). The concentration ranges selected for each drug and investigational agent were based upon clinically achievable concentrations if the clinical Cmax of the agent was known.
Compounds. The drugs and investigational agents: inavolisib (NSC800729), alpelisib (NSC765974), duvelisib (NSC772469), copanlisib (NSC816437), ipatasertib (NSC767898), afuresertib (NSC778305), talazoparib (NSC767125), sapanisertib (NSC764658), selumetinib (NSC741078), tovorafenib (DAY101, NSC766906), vemurafenib (NSC761431), ravoxertinib (NSC781343), sotorasib (NSC818433), MRTX1133 (NSC 836407), abemaciclib (NSC 768073), palbociclib (NSC758247), venetoclax (NSC 766270), SY5609 (NSC837396), enzalutamide (NSC755605), and darolutamide (NSC825331), were obtained from the National Cancer Institute (NCI) Developmental Therapeutics Program Chemical Repository. The FDA-approved anticancer drug set is available from the NCI Developmental Therapeutics Program. […] The stock solutions were prepared in dimethyl sulfoxide (DMSO, Sigma-Aldrich, St. Louis, MO, cat. D2650) at 800-fold the tested concentration and stored at -70 degrees C prior to their use. All drugs and investigational agents were tested over a range starting from a high concentration at or near the clinical Cmax and decreasing in half-log increments. If the clinical Cmax for an agent had not been determined, the highest concentration tested was 10 microM.
Cell Culture. All cells were maintained in an incubator at 37 degrees C and 5% CO2 with 95% humidity. The PDC lines were cultured according to standard operating procedures established by the NCI PDMR (https://pdmr.cancer.gov/sops/default.htm). All PDCs were thawed and cultured in Matrigel-coated flasks prepared with a working solution of 1X Ham's F-12 nutrient mix, without supplementation (Invitrogen, Waltham, MA, cat. 11765054), 100 U/mL penicillin-streptomycin (Invitrogen, cat. 15140122), and 2.5% Matrigel (Corning Inc., Corning, NY, cat. 354248) for the first three passages. The 354836-022-R-J1-PDC, 475296-252-R-J1-PDC, and 997726-040-R-J2-PDC lines were cultured in 6A media, which includes advanced DMEM/F-12 (Thermo Fisher Scientific, cat. 12634028), 10 mM HEPES (Thermo Fisher Scientific, cat. 15630080), 1X GlutaMAX supplement (Thermo Fisher Scientific, cat. 35050061), 0.1 mg/mL primocin (InvivoGen, San Diego, CA, cat. ant-pm-2), 10% defined fetal bovine serum, heat inactivated (HyClone Laboratories Inc., Logan, UT, cat. SH30070.03HI), 50% L-WRN conditioned media (ATCC, cat. CRL-3276), 1.25 mM N-Acetyl-L-cysteine (Sigma-Aldrich, cat. A9165), 10 mM nicotinamide (Sigma-Aldrich, cat. N0636), 1X B-27 supplement (Thermo Fisher Scientific, cat. 17504044), 1X N-2 supplement (Thermo Fisher Scientific, cat. 17502048), and 10 microM Y-27632 dihydrochloride (Tocris Bioscience, Bristol, United Kingdom, cat. 1254). The 624824-186-R-J2-PDC line was cultured in 6C/Colon 1B media, which includes all 6A media components plus 50 ng/mL human EGF recombinant protein (Thermo Fisher Scientific, cat. PHG0311). […]
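Also: spheroids exposed to compounds for seven days before viability read.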
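For viability, T/C in this document: luminescence used as a proxy for viable cell amount; percent viability relative to DMSO vehicle control as 100%.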

## Cn1cnc2c(F)c(Nc3ccc(Br)cc3Cl)c(C(=O)NOCCO)cc21 + CC(Nc1ccc2c(c1)OCCn1cc(N3C(=O)OCC3C(F)F)nc1-2)C(N)=O
Second compound 0.00316 µM
  IC50: 285 nM
Second compound 0.01 µM
  IC50: 339 nM
Second compound 0.0316 µM
  IC50: 206 nM
Second compound 0.1 µM
  IC50: 91.1 nM
Second compound 0.316 µM
  IC50: 38.9 nM
Second compound 1 µM
  IC50: 25.2 nM
Second compound 0.00316 µM, first compound 0.00949 µM
  viability, T/C: 100%
Second compound 0.00316 µM, first compound 0.03 µM
  viability, T/C: 84.9%
Second compound 0.00316 µM, first compound 0.0949 µM
  viability, T/C: 64%
Second compound 0.00316 µM, first compound 0.3 µM
  viability, T/C: 51%
Second compound 0.00316 µM, first compound 0.949 µM
  viability, T/C: 35.1%
Second compound 0.00316 µM, first compound 3 µM
  viability, T/C: 26.2%
Second compound 0.01 µM, first compound 0.00949 µM
  viability, T/C: 95.9%
Second compound 0.01 µM, first compound 0.03 µM
  viability, T/C: 74.2%
Second compound 0.01 µM, first compound 0.0949 µM
  viability, T/C: 71.6%
Second compound 0.01 µM, first compound 0.3 µM
  viability, T/C: 49.9%
Second compound 0.01 µM, first compound 0.949 µM
  viability, T/C: 36.3%
Second compound 0.01 µM, first compound 3 µM
  viability, T/C: 24.7%
Second compound 0.0316 µM, first compound 0.00949 µM
  viability, T/C: 95.3%
Second compound 0.0316 µM, first compound 0.03 µM
  viability, T/C: 79.7%
Second compound 0.0316 µM, first compound 0.0949 µM
  viability, T/C: 58.6%
Second compound 0.0316 µM, first compound 0.3 µM
  viability, T/C: 44.1%
Second compound 0.0316 µM, first compound 0.949 µM
  viability, T/C: 35.6%
Second compound 0.0316 µM, first compound 3 µM
  viability, T/C: 23.7%
Second compound 0.1 µM, first compound 0.00949 µM
  viability, T/C: 84.7%
Second compound 0.1 µM, first compound 0.03 µM
  viability, T/C: 69.3%
Second compound 0.1 µM, first compound 0.0949 µM
  viability, T/C: 47.3%
Second compound 0.1 µM, first compound 0.3 µM
  viability, T/C: 35%
Second compound 0.1 µM, first compound 0.949 µM
  viability, T/C: 26.7%
Second compound 0.1 µM, first compound 3 µM
  viability, T/C: 18.5%
Second compound 0.316 µM, first compound 0.00949 µM
  viability, T/C: 60.6%
Second compound 0.316 µM, first compound 0.03 µM
  viability, T/C: 53.4%
Second compound 0.316 µM, first compound 0.0949 µM
  viability, T/C: 41.8%
Second compound 0.316 µM, first compound 0.3 µM
  viability, T/C: 31.1%
Second compound 0.316 µM, first compound 0.949 µM
  viability, T/C: 24.9%
Second compound 0.316 µM, first compound 3 µM
  viability, T/C: 13.7%
Second compound 1 µM, first compound 0.00949 µM
  viability, T/C: 58.7%
Second compound 1 µM, first compound 0.03 µM
  viability, T/C: 48%
Second compound 1 µM, first compound 0.0949 µM
  viability, T/C: 38.4%
Second compound 1 µM, first compound 0.3 µM
  viability, T/C: 27.4%
Second compound 1 µM, first compound 0.949 µM
  viability, T/C: 18.9%
Second compound 1 µM, first compound 3 µM
  viability, T/C: 11.4%
